Read-outs that look alike come from different tables or passages of the source. One block for each molecule: values may come before it.
Tests used:
[1] = tested on: Lgr5+ cells; experiment: Lgr5+ Assay (Lgr5+ cell assay in vitro); format: cell-based
[2] = cited from earlier work
[3] = Perilymph Conc. listed for agents (Tables 14-25)
[4] = target: T1, LSD1 (Homo sapiens, UniProt O60341); settings: Table 18, LSD1; read-out: pKi or IC50 (converted); cited from earlier work
[5] = target: T2, EZH2 (Homo sapiens, UniProt Q15910); settings: Table 19, EZH2; read-out: pKi or IC50 (converted); cited from earlier work
[6] = target: gamma secretase; settings: cited from earlier work; for Lit cell conc: Table 23
[7] = target: T1, LSD1; settings: Table 18, cited from earlier work
[8] = tested on: KDM; settings: cited from earlier work
[9] = Reconstitution time of lyophilized compositions (Tables E, 28, 35); format: physicochemical; settings: for Reconstitution time (minutes) water + DMSO / Reconstitution time (minutes) with water: lyophilized 16.15% P407 with salt at 533.25 mM; for Reconstitution time (minutes) water + DMSO: reconstituted with Diluent ([…] DMSO in water); for Reconstitution time (minutes) with water: reconstituted with water; for reconstitution time of lyophilized poloxamer with added organic acid salt: poloxamer 16.15%, salt 533.25 mM
Method: Diluent 1, 0.85 mL+lyophilized cake. […] Gentle tapping on the exterior of the vessel to help the cake dissolve in the Diluent may be required while keeping it in fridge (or ice bath). To avoid degradation of the composition, minimize stirring and/or vortexing.
Diluent 1, 0.95 mL+Placebo cake: Using a syringe, add the Diluent to the Placebo cake, and rest in a fridge or ice bath (2-8° C.) for 60 minutes or until clear solution is formed. Gentle tapping on the exterior of the vessel to help the cake dissolve in the Diluent may be required while keeping it in fridge (or ice bath). To avoid degradation of the composition, minimize stirring and/or vortexing.
Powder P407 (i.e. non-lyophilized) can be obtained from BASF.
Reconstitution of lyophilized P407 (Placebo) and powder P407 was done using 850 μL Diluent (see above for example preparations of a Diluent) in a vial.
Therefore, to probe the effect of salts other than sodium valproate on reconstitution time, a poloxamer solution at 16.15% concentration either alone or including a salt (e.g. an inorganic salt or organic acid salt) at a concentration of 533.25 mM, was lyophilized. The lyophilized material was then reconstituted using Diluent for reconstitution (6.4% DMSO by wt. % in water) or with water.
Building on the results of Examples 14 to 16, further lyophilized compositions were manufactured and had their reconstitution times evaluated. […] The further lyophilized compositions were made in accordance with Example 10, and reconstituted in accordance with Example 12.

[10] = target: T2, EZH2; settings: Table 19; cited from earlier work
[11] = Table 23, Aβ40, read-out: Lit cell conc IC50, Aβ40
[12] = Table 23, Aβ42, read-out: Lit cell conc IC50, Aβ42
[13] = Table 21, KDM 5, read-out: Select KDM 5

T2 sequence (Q15910 whole entry, species assumed): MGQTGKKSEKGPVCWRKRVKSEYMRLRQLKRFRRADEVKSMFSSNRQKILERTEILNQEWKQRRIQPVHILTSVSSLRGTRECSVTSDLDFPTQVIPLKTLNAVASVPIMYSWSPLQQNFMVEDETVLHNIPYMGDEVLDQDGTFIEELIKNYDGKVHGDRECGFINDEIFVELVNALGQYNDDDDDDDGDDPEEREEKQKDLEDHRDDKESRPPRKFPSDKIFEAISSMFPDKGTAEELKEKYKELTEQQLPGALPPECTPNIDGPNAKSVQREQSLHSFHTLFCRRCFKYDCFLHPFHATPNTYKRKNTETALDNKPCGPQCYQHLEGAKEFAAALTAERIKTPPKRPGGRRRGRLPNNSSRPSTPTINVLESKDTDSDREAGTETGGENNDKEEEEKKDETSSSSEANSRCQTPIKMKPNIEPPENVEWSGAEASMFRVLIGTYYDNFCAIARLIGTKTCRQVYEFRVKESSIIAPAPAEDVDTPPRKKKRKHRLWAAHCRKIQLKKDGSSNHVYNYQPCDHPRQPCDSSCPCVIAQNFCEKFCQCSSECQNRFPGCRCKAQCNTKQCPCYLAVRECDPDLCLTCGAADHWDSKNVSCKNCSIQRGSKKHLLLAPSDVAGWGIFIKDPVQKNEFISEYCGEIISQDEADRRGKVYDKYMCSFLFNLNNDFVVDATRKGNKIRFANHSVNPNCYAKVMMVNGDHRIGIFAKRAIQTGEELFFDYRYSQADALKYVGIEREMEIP
T2 sequence (O75530 whole entry partner, species assumed): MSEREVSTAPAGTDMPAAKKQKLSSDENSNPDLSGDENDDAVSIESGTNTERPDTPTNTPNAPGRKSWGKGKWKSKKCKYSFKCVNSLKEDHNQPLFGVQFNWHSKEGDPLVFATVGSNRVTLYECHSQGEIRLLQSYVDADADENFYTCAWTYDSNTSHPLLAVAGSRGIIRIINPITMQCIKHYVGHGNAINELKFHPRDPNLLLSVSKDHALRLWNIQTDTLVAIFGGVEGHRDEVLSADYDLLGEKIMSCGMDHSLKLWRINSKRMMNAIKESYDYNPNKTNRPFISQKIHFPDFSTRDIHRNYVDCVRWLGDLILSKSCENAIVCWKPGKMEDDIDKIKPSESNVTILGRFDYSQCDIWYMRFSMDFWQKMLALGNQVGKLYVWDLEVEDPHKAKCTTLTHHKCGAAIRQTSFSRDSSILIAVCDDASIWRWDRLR
T2 sequence (Q15022 whole entry partner, species assumed): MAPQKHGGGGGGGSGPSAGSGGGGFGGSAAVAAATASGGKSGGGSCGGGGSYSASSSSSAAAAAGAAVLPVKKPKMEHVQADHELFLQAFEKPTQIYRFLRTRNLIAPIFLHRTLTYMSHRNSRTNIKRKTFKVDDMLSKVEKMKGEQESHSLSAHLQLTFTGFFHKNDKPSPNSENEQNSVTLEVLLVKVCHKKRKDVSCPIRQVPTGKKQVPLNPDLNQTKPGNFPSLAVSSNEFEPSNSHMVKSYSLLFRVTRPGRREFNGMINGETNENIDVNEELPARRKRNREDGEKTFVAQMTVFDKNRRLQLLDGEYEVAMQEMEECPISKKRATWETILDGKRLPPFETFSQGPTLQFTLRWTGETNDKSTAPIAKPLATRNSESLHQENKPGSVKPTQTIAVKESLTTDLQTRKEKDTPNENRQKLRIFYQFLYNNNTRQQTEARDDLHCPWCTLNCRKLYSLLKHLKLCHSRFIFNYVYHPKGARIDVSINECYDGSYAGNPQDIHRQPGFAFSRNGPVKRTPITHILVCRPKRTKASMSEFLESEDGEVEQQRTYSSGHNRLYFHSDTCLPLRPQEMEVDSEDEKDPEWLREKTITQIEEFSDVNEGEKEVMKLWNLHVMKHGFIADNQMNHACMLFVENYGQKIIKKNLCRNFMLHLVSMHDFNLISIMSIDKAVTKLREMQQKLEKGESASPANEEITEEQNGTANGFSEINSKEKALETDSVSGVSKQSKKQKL

Perilymph Conc ([3]; Table 21): 1 to 3 µM
Molecule: O=C(N/N=C/c1c(O)ccc2ccccc12)c1ccncc1 [AS 8351]
Lgr5+ Assay ([1]; Table 21): 1 to 3 µM | Human In Vivo Conc ([2]; Table 21): 1 to 3 µM

Molecule: COc1c(O)cc2oc3cc(O)c(CC=C(C)C)c(O)c3c(=O)c2c1CC=C(C)C [Alpha-mangostin]
IC50 [4]: 2800 nM

Molecule: COc1ccc(CCN2CCC(Nc3nc4ccccc4n3Cc3ccc(F)cc3)CC2)cc1 [Astemizole]
IC50 [5]: 94000 nM

Molecule: NC(=O)[C@@H](CCC(F)(F)F)N(Cc1ccc(-c2ncon2)cc1F)S(=O)(=O)c1ccc(Cl)cc1 [Avagacestat/BMS-708163]
IC50 [6, 11]: 0.3 nM | IC50 [6, 12]: 0.27 nM

Molecule: C[C@H](c1ccc(F)cc1CCCC(=O)O)N(c1cc(F)ccc1F)S(=O)(=O)c1ccc(Cl)cc1 [BMS 299897]
IC50 [6, 11]: 7.4 nM | IC50 [6, 12]: 7.9 nM

Molecule: COc1nc(-c2cc(C)c(N[C@@H](C)c3ccc(F)cc3)nn2)ccc1-n1cnc(C)c1 [BPN-15606]
IC50 [6, 11]: 17 nM | IC50 [6, 12]: 7 nM

Molecule: O=S(=O)(N[C@H](CO)C(C(F)(F)F)C(F)(F)F)c1ccc(Cl)s1 [Begacestat/GSI-953]
EC50 ([6]; Table 23, Aβ40, in cells, read-out: Lit cell conc EC50, lowers Aβ40): 14.8 nM | EC50 ([6]; Table 23, Aβ42, in cells, read-out: Lit cell conc EC50, lowers Aβ42): 12.4 nM

Molecule: COC(=O)c1cc(CN2CCN(C(=N)N)CC2)cc(C(=O)N2CCN(C(=O)c3ccc(C(=N)N)cc3)CC2)c1 [CBB-1007]
Lgr5+ Assay ([1]; Table 18, result in words): Activity | IC50 [4]: 2100 nM | IC50 ([7]; read-out: Literat. Cell IC50): < 5000 nM

Molecule: O=C(O)C1(c2ccc(-c3ccc(Cl)c(Cl)c3)c(F)c2)CC1 [CHF5074]
IC50 [6, 11]: 18400 nM

Molecule: COc1cc(C)[nH]c(=O)c1CNC(=O)c1c(C)n([C@H](C)C2CCN(CC(F)(F)F)CC2)c2ccccc12 [CPI-1205]
Human In Vivo Conc ([2]; Table 19): 0.025 to 0.25 µM | Perilymph Conc ([3]; Table 19): 0.01 to 1 µM

Molecule: CCc1c(-c2ccccc2C)nc2c(C#N)c[nH]n2c1=O [CPI-4203]
IC50 [8, 13]: 1100 nM

Molecule: [Ca+2].[Cl-].[Cl-] [Calcium Chloride]
Reconstitution time (minutes) water + DMSO [9]: plugs remain at end of 180 minutes | Reconstitution time (minutes) with water [9]: plugs remain at end of 180 minutes

Molecule: CC(C(=O)O)c1ccc2c(c1)[nH]c1ccc(Cl)cc12 (stereo not shown) [Carprofen]
Lit cell conc [6]: 76 µM

Molecule: C[C@H](NC(=O)CCC(F)(F)F)C(=O)N[C@@H]1C(=O)N(CCO)c2ncccc2-c2ccccc21 [Crenigacestat LY 3039478]
IC50 ([6]; Table 23, in most of the tumor cell lines, read-out: Lit cell conc IC50): ~1 nM

Molecule: C[C@H](NC(=O)Cc1cc(F)cc(F)c1)C(=O)N[C@H](C(=O)OC(C)(C)C)c1ccccc1 [DAPT]
IC50 ([6]; Table 23, neuronal culture, Aβ42, read-out: Lit cell conc IC50, Aβ42): 200 nM | IC50 ([6]; Table 23, neuronal culture, total Aβ, read-out: Lit cell conc IC50, total Aβ): 115 nM

Molecule: Nc1nccc2c1ncn2C1C=C(CO)C(O)C1O (stereo not shown) [DZNep]
Lgr5+ Assay ([1]; Table 19, result in words): Activity | Lit Cell Poten [10]: 1000 nM

Molecule: CCc1c(N(CC)C2CCOCC2)cc2oc(C3CCN(C(C)C)CC3)cc2c1C(=O)NCc1c(C)cc(C)[nH]c1=O [EBI-2511]
IC50 [5]: 4 nM

Molecule: CS(=O)(=O)c1ccc(-c2cnc(NCc3ccco3)n3cnnc23)cc1 [EED226]
Lgr5+ Assay ([1]; Table 19, result in words): Activity

Molecule: CCN(c1cc(C#CCN2CCOCC2)cc(C(=O)NCc2c(C)cc(C)[nH]c2=O)c1C)[C@H]1CC[C@H](N(C)CCOC)CC1 [EPZ-011989]
Lit Cell Poten [10]: 94 nM

Molecule: CCOc1ccc2nc3cc(N)ccc3c(N)c2c1 [Ethacridine, reference compound]
Lgr5+ Assay ([1]; Table 22, result in words): Activity

Molecule: CC1=C(C(=O)OC2CCCCC2)C(c2ccc([N+](=O)[O-])cc2)C2=C(CC(C)(C)CC2=O)N1 (stereo not shown) [FLI-06]
IC50 [4]: 92 nM

Molecule: CCCc1cc(C)[nH]c(=O)c1CNC(=O)c1cc(-c2ccnc(N3CCN(C)CC3)c2)cc2c1cnn2C(C)C [GSK343]
Lit Cell Poten [10]: 174 nM

Molecule: CCOC(=O)CCNc1cc(N2CCc3ccccc3CC2)nc(-c2ccccn2)n1 [GSK-J4]
IC50 [8, 13]: 170 nM | IC50 ([8]; Table 21, KDM 6, read-out: Select KDM 6): 28 nM

Molecule: c1ccc([C@@H]2C[C@H]2NC2CCNCC2)cc1 [GSK-LSD1]
Lgr5+ Assay ([1]; Table 18, lower end of concentration range): ≥ 4 nM- | Human Plasma Conc ([2]; Table 18): 1 to 100 nM | Perilymph Conc ([3]; Table 18, lower end of range): ≥ 4 nM- | Perilymph Conc ([3]; Table 18, range or its upper end): ≤ 50 µM

Molecule: NO [Hydroxylamine]
IC50 [4]: 121 nM

Perilymph Conc ([3]; Table 22, listed concentration, no test described): 1.1 to 30 µM
Molecule: C=CCNc1nc(N)c(C(=O)c2ccc(Cl)s2)s1 [IBS008738, reference compound]
Lgr5+ Assay ([1]; Table 22): 1.1 to 30 µM

Molecule: COc1ccc2c(c1)c(CC(=O)O)c(C)n2C(=O)c1ccc(Cl)cc1 [Indomethacin]
Lit cell conc [6]: 25 to 50 µM

Molecule: Clc1ccc(N/N=C(\c2ccccc2)c2ccccn2)nc1 [JIB-04]
IC50 [8, 13]: 220 nM

Molecule: COc1oc(=O)c2cc(N)ccc2c1Cl [JLK 6]
Lit cell conc [6]: 30 µM

Molecule: CC(C)C[C@H](C(=O)O)c1cc(-c2ccc(C(F)(F)F)cc2)cc(-c2ccc(C(F)(F)F)cc2)c1 [JNJ-40418677]
Lit cell conc [6]: 0.18 to 0.2 µM

Molecule: CN(C)CCCNc1nc(NC2CCN(Cc3ccccc3)CC2)c2ccccc2n1 [MC2694]
IC50 [4]: 1000 nM

Molecule: O=C(O)CC[C@H]1CC[C@@](c2cc(F)ccc2F)(S(=O)(=O)c2ccc(Cl)cc2)CC1 [MK-0572]
IC50 ([6]; Table 23, SH-SY5Y cells, read-out: Lit cell conc IC50): 5 nM

Molecule: O=S(=O)(NC1CCC(c2cc(F)ccc2F)(S(=O)(=O)c2ccc(Cl)cc2)CC1)C(F)(F)F (stereo not shown) [MRK 560]
Lit cell conc [6]: 0.00065 µM

Molecule: [Cl-].[Cl-].[Mg+2] [Magnesium Chloride]
Reconstitution time (minutes) water + DMSO [9]: 180 min | Reconstitution time (minutes) with water [9]: 180 min

Molecule: CCc1cc(Nc2nc(-c3ccc(-n4cnc(C)c4)c(F)c3)cs2)c(C)cc1C [NGP 555]
Lit cell conc [6]: 0.01 µM

Molecule: N[C@H]1CC[C@H](N[C@@H]2C[C@H]2c2ccccc2)CC1 [ORY-1001]
Lgr5+ Assay ([1]; Table 18, result in words): Activity

Molecule: C=CC(=O)Nc1cc(Nc2nccc(-c3cn(C)c4ccccc34)n2)c(OC)cc1N(C)CCN(C)C [Osimertinib]
Literat. Cell [7]: 43 nM

Molecule: [Cl-].[K+] [Potassium Chloride]
Reconstitution time (minutes) water + DMSO [9]: 168 min | Reconstitution time (minutes) with water [9]: 180 min

Molecule: O=P(O)(O)O [Potassium Phosphate]
Reconstitution time (minutes) water + DMSO [9]: undissolved at end of 180 minutes | Reconstitution time (minutes) with water [9]: undissolved at end of 180 minutes

Molecule: C/C(=N\NC(=O)c1cccc(S(=O)(=O)N2CCOCC2)c1)c1cc(Cl)ccc1O [SP-2509]
Lgr5+ Assay ([1]; Table 18, result in words): Activity | IC50 [4]: 13 nM | Literat. Cell [7]: 350 to 650 nM

Molecule: CC(C)[C@H](O)C(=O)N[C@@H](C)C(=O)N[C@@H]1C(=O)N(C)CCc2ccccc21 [Semagacestat LY 450139]
IC50 ([6]; Table 23, Aβ38, read-out: Lit cell conc IC50, Aβ38): 12 nM | IC50 [6, 11]: 12.1 nM | IC50 [6, 12]: 10.9 nM

reconstitution time of lyophilized poloxamer with added organic acid salt [9]: 420 min
Molecule: C#CCC(CCCCCC)C(=O)[O-].[Na+] (stereo not shown) [Sodium 2-(prop-2-yn-1-yl) octanoate, reference compound]

Reconstitution time (minutes) water + DMSO [9]: 4 min | Reconstitution time (minutes) with water [9]: 4 min
Molecule: C#CCC(CCCCCC)C(=O)[O-].[Na+] (stereo not drawn) [Sodium 2-(prop-2-yn-l-yl) Octanoate]

Reconstitution time (minutes) water + DMSO [9]: undissolved at end of 180 minutes | Reconstitution time (minutes) with water [9]: undissolved at end of 180 minutes
Molecule: O=C([O-])O.[Na+] [Sodium Bicarbonate]

Molecule: [Cl-].[Na+] [Sodium Chloride]
Reconstitution time (minutes) water + DMSO [9]: 150 min | Reconstitution time (minutes) with water [9]: 150 min

Molecule: CSc1ccc(/C=C2/C(C)=C(CC(=O)O)c3cc(F)ccc32)cc1 [Suldinac sulfide]
Lit cell conc [6]: 34 µM

Molecule: Cc1coc2c1C(=O)C(=O)c1c-2ccc2c1CC[C@@H](O)[C@]2(C)O [Tanshindiol C]
IC50 [5]: 550 nM

Perilymph Conc ([3]; Table 19): 0.01 to 1 µM
Molecule: Cc1cc(C)c(CNC(=O)c2cc(Cl)c3c(c2C)O[C@@](C)([C@H]2CC[C@H](N(C)C)CC2)O3)c(=O)[nH]1 [Valemetostat]

Molecule: Magnesium divalproate [reference compound]
Reconstitution time (minutes) water + DMSO [9]: 14 min | Reconstitution time (minutes) with water [9]: 14 min | reconstitution time of lyophilized poloxamer with added organic acid salt [9]: 420 min

Molecule: Tanshindiol B
IC50 [5]: 520 nM

Reference: patent US20220192984A1, “PHARMACEUTICAL COMPOSITIONS COMPRISING OTIC THERAPEUTIC AGENTS AND RELATED METHODS” (Frequency Therapeutics, Inc., priority 2018, published 2022)
